Assay results taken from ChEMBL document CHEMBL1201862, “PubChem BioAssay data set” (2004).
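Cells were grown in 96-well plates and exposed to each compound for 48 hours at five concentrations; endpoints were interpolated linearly between bracketing concentrations, or set to the highest concentration if not reached. Abbreviation: GI50, concentration required for 50% inhibition of growth.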 Activity calls are given as the source filed them. No stated cut-off is given here; in the data, active = GI50 up to about 1.1 µM and inactive = higher.

Key:
Test in all cases: NCI tumour cell line growth inhibition, 48 h
[1] = tested on: RXF 631
[2] = tested on: DMS-114
[3] = tested on: DLD-1
[4] = tested on: HOP-18
[5] = tested on: DMS-273
[6] = tested on: M19-MEL
[7] = tested on: SNB-78
[8] = tested on: LXFL 529
[9] = tested on: XF498

Measured: GI50

CCOC(=O)C(=O)Nc1c(CC)cccc1C(C)CC (stereo not drawn)
inactive: [1] > 100 µM | [2] > 100 µM | [3] > 100 µM | [4] > 100 µM | [5] > 100 µM | [6] > 100 µM | [7] > 100 µM | [8] > 100 µM | [9] > 100 µM

CC(=O)Nc1ccc(C2=N/C(=C\c3ccc(Cl)cc3)C(=O)O2)cc1
inactive: [3] 31.9 µM | [4] > 100 µM | [5] 66.5 µM | [6] 25.5 µM | [7] > 100 µM | [8] 24.4 µM | [9] 22 µM

CCOC(=O)c1cc(C(=O)O)c(=O)n2c1[nH]c1ccccc12
inactive: [1] > 100 µM | [2] > 100 µM | [3] 99.8 µM | [4] 42.1 µM | [5] 56.1 µM | [6] > 100 µM | [7] > 100 µM | [8] 75.7 µM | [9] > 100 µM

Cc1ccc(/C=C/C(=O)C(C)C)cc1
inactive: [2] 42.2 µM | [3] 51.9 µM | [6] 64 µM | [7] 64.7 µM | [8] 33.8 µM

NCc1ccccc1-c1c2nc(c(-c3ccccc3CN)c3ccc([nH]3)c(-c3ccccc3CN)c3nc(c(-c4ccccc4CN)c4ccc1[nH]4)C=C3)C=C2
inactive: [4] 1.18 µM | [5] 7.36 µM | [6] 22.2 µM | [7] 16.7 µM | [8] 22.1 µM

CCc1cccc(C)c1NC(=O)C(=O)CC(=O)c1ccc(Cl)s1
inactive: [1] > 100 µM | [3] > 100 µM | [4] > 100 µM | [6] > 100 µM | [7] > 100 µM | [8] > 100 µM

CN(C)CCS/C(=N\c1ccccc1)N1CCCCC1
inactive: [2] 13.5 µM | [3] 17.3 µM | [4] 17.9 µM | [5] 16.7 µM | [6] 17.1 µM | [8] 15.9 µM | [9] 16.1 µM

O=C1CC2CC3OC3[C@H]3c4cc5c(cc4C(=O)N1C23)OCO5 (stereo partly drawn)
inactive: [2] > 100 µM | [5] > 100 µM | [6] > 100 µM | [8] > 100 µM | [9] > 100 µM
